In brackets after ≈: the same amount, converted by molar mass. Activity calls are given as the source filed them. No cut-off for these calls is given here.
Assays:
[1] = tested on: Trypanosoma cruzi; test: Antitrypanosomal activity against Trypanosoma cruzi Y trypomastigotes infected in Swiss albino mouse blood assessed as reduction of parasite number at 500 ug/mL after 24 hrs; format: functional; design: scale not given: the % may be the effect or the level left
[2] = tested on: Trypanosoma cruzi; test: Antitrypanosomal activity against Trypanosoma cruzi Y trypomastigotes infected in Swiss albino mouse blood assessed as reduction of parasite number at 250 ug/mL after 24 hrs; format: functional; design: scale not given: the % may be the effect or the level left
[3] = tested on: Trypanosoma cruzi; test: Antitrypanosomal activity against Trypanosoma cruzi Y trypomastigotes infected in Swiss albino mouse blood assessed as reduction of parasite number at 125 ug/mL after 24 hrs; format: functional; design: scale not given: the % may be the effect or the level left
[4] = tested on: Clavibacter michiganensis subsp. michiganensis; test: Antimicrobial activity against Clavibacter michiganensis subsp. michiganensis; format: functional
[5] = tested on: Listeria monocytogenes; test: Antimicrobial activity against Listeria monocytogenes; format: functional
[6] = tested on: Staphylococcus aureus; test: Antibacterial activity against Staphylococcus aureus; format: functional
[7] = Toxicity in Artemia salina; format: organism-based; details: in vivo
[8] = tested on: Cladosporium sphaerospermum; test: Antifungal activity against Cladosporium sphaerospermum; format: functional, organism-based
[9] = tested on: Biomphalaria glabrata; test: Molluscicidal activity against Biomphalaria glabrata at 20 ppm; format: functional, organism-based
[10] = tested on: Trypanosoma cruzi; test: Antitrypanosomal activity against Trypanosoma cruzi Y trypomastigotes infected in Swiss albino mouse assessed as reduction in parasitaemia at 500 mg/kg, po after 6 hrs; format: functional, organism-based; design: dose 500 mg/kg
[11] = tested on: Trypanosoma cruzi; test: Antitrypanosomal activity against Trypanosoma cruzi Y trypomastigotes infected in Swiss albino mouse assessed as mortality rate at 100 mg/kg, po daily for 4 days assessed after 6 to 9 days; format: functional, organism-based; design: dose 100 mg/kg

CC(C)=CC[C@H]1C[C@]2(CC=C(C)C)C(=O)C(C(=O)c3ccccc3)=C(O)[C@](CC=C(C)C)(C2=O)C1(C)C
Activity [1]: 92%
Activity [2]: 38%
Activity [3]: 17%
MIC [4]: 4 µg/mL (≈ 7.96 µM)
IC100 [5]: 80 µg/mL
IC100 [6]: 80 µg/mL
LC50 [7]: 49.7 µM
Activity [8]: inactive
Activity [9]: inactive
Activity [10]: Active
Activity [11]: inactive

O=C(Cn1ccnc1[N+](=O)[O-])NCc1ccccc1
Activity [10]: Active
Activity [11]: Active
